Data from patent US11572341B2, “Biguanide compound and use thereof” (ImmunoMet Therapeutics Inc., priority 2014, dated 2023).

How the values were obtained:
HCT116 cells = experiment: Inhibitory effect against cancer cell proliferation (MTT); format: cell-based, human; details: Homo sapiens, HCT-116; HCT116, MTT, 48 hours; read-out: IC50 (uM) @ HCT116
Description: The formazane crystals thus formed were dissolved using dimethyl sulfoxide (DMSO) and absorbance of the solution was measured at 560 nm. After culturing for 48 hours, […] synthesized in Examples was indicated as cell viability (%) according to each treated concentration.

AMPKa [pT172] = experiment: AMPKa activation [pT172] in MCF7 cell; format: cell-based

| SMILES | IC50 (HCT116 cells) [µM] | AMPKa activation [pT172] (Unit/ml) @ MCF7 cell (AMPKa [pT172]; 5 uM) [Unit/ml] | AMPKa activation [pT172] (Unit/ml) @ MCF7 cell (AMPKa [pT172]; 10 uM) [Unit/ml] | AMPKa activation [pT172] (Unit/ml) @ MCF7 cell (AMPKa [pT172]; 50 uM) |
| --- | --- | --- | --- | --- |
| CCCN(CC)C(=N)NC(=N)N(CCC)CCC.Cl [Example 7, N1,N1-dipropyl-N5-propyl-N5-ethyl Biguanide Hydrochloride] | > 100 | 16.2 | 22.3 | 34.6 Unit/ml |
| CCCN(CCC)C(=N)NC(=N)N1CCCCC1.Cl [Example 8, N1,N1-dipropyl-N5-piperidine Biguanide Hydrochloride] | > 100 | 10.8 | 12.5 | 19.3 Unit/ml |
| CC(C)(C)N(Cc1ccccc1)C(=N)NC(=N)Nc1ccc(Cl)cc1.Cl [Example 10, N1-(4-chloro)phenyl-N5-t-butyl-N5-benzyl Biguanide Hydrochloride] | > 100 |  |  | 10.4 Unit/ml |
| Cl.N=C(NCc1ccccc1Cl)NC(=N)N1CCCCC1 [Example 12, N1-piperidin-N5-(2-chloro)benzyl Biguanide Hydrochloride] | > 100 |  |  | 3.1 Unit/ml |
| CCCN(CCC)C(=N)NC(=N)N(C1CCCCC1)C1CCCCC1.Cl [Example 15, N1,N1-dipropyl-N5,N5-dicyclohexyl Biguanide Hydrochloride] | > 100 |  |  | 6.1 Unit/ml |
| CCCN(CCC)C(=N)NC(=N)N(CCC)CCC.Cl [Example 16, N1,N1-dipropyl-N5N-dipropyl Biguanide Hydrochloride] | 45.9 | 7.0 | 9.4 | 13.6 Unit/ml |
| CN1CCN(C(=N)NC(=N)NCc2ccc(C(F)(F)F)cc2)CC1.Cl [Example 18, N1-(4-methyl)piperazin-N5-(4-trifluoromethyl)benzyl Biguanide Hydrochloride] | > 100 | 7.1 | 8.6 | 13.3 Unit/ml |
| CCOC1CCN(C(=N)NC(=N)Nc2ccc(C(F)(F)F)cc2)CC1.Cl [Example 23, N1-(4-ethoxy)piperidin-N5-(4-trifluoromethyl)phenyl Biguanide Hydrochloride] | 12.7 | 7.7 | 6.6 | cell death |
| CCOC1CCN(C(=N)NC(=N)Nc2cccc(C(F)(F)F)c2)CC1.Cl [Example 24, N1-(4-ethoxy)piperidin-N5-(3-trifluoromethyl)phenyl Biguanide Hydrochloride] | 11.5 | 5.2 | 4.7 | cell death |

The next lines start with results.

| IC50 (HCT116 cells) [µM] | SMILES | AMPKa activation [pT172] (Unit/ml) @ MCF7 cell (AMPKa [pT172]; 5 uM) [Unit/ml] | AMPKa activation [pT172] (Unit/ml) @ MCF7 cell (AMPKa [pT172]; 10 uM) [Unit/ml] | AMPKa activation [pT172] (Unit/ml) @ MCF7 cell (AMPKa [pT172]; 50 uM) |
| --- | --- | --- | --- | --- |
| 35.1 | CC(C)NC(=N)NC(=N)Nc1ccc(Cl)cc1.Cl [Example 17, N1-isopropyl-N5-(4-chloro)phenyl Biguanide Hydrochloride] | 10.2 | 10.8 | 55.7 Unit/ml |
| 41.7 | CN1CCN(C(=N)NC(=N)Nc2ccc(C(F)(F)F)cc2)CC1.Cl [Example 19, N1-(4-methyl)piperazin-N5-(4-trifluoromethyl)phenyl Biguanide Hydrochloride] | 3.3 | 4.3 | 15.3 Unit/ml |
| > 100 | CN1CCN(C(=N)NC(=N)NCc2cccc(C(F)(F)F)c2)CC1.Cl [Example 20, N1-(4-methyl)piperazin-N5-(3-trifluoromethyl)benzyl Biguanide Hydrochloride] | 2.9 | 4.5 | 5.6 Unit/ml |
| 43.2 | CN1CCN(C(=N)NC(=N)Nc2cccc(C(F)(F)F)c2)CC1.Cl [Example 21, N1-(4-methyl)piperazin-N5-(3-trifluoromethyl)phenyl Biguanide Hydrochloride] | 6.0 | 5.8 | 14.8 Unit/ml |
| 35.2 | CN1CCN(C(=N)NC(=N)Nc2cccc(OC(F)(F)F)c2)CC1.Cl [Example 22, N1-(4-methyl)piperazin-N5-(3-trifluoromethoxy)phenyl Biguanide Hydrochloride] | 3.8 | 10.1 | 22.3 Unit/ml |
| 9.7 | CCOC1CCN(C(=N)NC(=N)Nc2ccc(OC(F)(F)F)cc2)CC1.Cl [Example 26, N1-(4-ethoxy)piperidin-N5-(4-trifluoromethoxy)phenyl Biguanide Hydrochloride] | 3.6 | 6.6 | cell death |
